These results are taken from ChEMBL document CHEMBL1142743, “8-Piperazinyl-2,3-dihydropyrrolo[3,2-g]isoquinolines: potent, selective, orally bioavailable 5-HT1 receptor ligands” (Bioorg Med Chem Lett, 2005).

Data set [1] addresses T1, 5-hydroxytryptamine receptor 1A (Homo sapiens, UniProt P08908).
T1 sequence (P08908 whole entry): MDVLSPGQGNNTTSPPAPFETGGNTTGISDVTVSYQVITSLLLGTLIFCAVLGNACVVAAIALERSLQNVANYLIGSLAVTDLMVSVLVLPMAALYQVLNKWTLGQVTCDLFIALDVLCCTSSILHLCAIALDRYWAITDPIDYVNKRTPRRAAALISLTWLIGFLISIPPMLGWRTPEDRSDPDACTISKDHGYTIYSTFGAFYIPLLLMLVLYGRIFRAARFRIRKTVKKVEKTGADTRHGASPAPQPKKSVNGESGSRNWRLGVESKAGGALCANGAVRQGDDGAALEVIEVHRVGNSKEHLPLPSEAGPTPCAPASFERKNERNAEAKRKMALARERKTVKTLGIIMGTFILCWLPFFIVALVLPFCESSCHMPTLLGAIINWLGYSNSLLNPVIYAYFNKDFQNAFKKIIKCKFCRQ
Kind of data set: Mean binding affinity towards 5-hydroxytryptamine 1A receptor using [3H]-5-HT or [3H]8-OH-DPAT as the radioligand.

Data set [2] has as its target T2, 5-hydroxytryptamine receptor 1B (Homo sapiens, UniProt P28222). The data set is described as follows: Mean binding affinity towards 5-hydroxytryptamine 1B receptor using [3H]5-HT or [3H]-8-OH-DPAT as the radioligand.
In data set [3] the target is 5-hydroxytryptamine receptor 1D (Homo sapiens, UniProt P28221). The data set is described as follows: Mean binding affinity towards 5-hydroxytryptamine 1D receptor using [3H]5-HT or [3H]-8-OH-DPAT as the radioligand.
Chain of 5-hydroxytryptamine receptor 1D (P28221 whole entry): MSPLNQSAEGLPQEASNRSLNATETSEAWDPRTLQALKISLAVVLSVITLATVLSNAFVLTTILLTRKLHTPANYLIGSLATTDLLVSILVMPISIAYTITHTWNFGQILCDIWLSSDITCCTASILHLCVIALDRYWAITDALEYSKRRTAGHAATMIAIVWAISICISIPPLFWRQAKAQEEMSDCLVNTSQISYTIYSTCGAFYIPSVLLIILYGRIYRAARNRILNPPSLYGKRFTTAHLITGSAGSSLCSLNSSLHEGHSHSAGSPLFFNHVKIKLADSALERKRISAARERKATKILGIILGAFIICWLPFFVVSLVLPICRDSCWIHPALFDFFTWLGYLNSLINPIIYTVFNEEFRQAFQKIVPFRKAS
Data set [4] has as its target T3, 5-hydroxytryptamine receptor 1A (Homo sapiens) (UniProt P08908).
T3 sequence (whole entry): T1 sequence (P08908 whole entry)
The data set is described as follows: Partial agonist efficacy in the 5-HT1A GTPgammaS functional assay; Expressed as fraction of 5-HT efficacy.

Data set [5] addresses T2, 5-hydroxytryptamine receptor 1B. Kind of data set: Partial agonist efficacy in the 5-HT1B GTPgammaS functional assay; Expressed as fraction of 5-HT efficacy.
Data set [6] in a line: Brain/blood concentration after administration in rat. The conditions noted are these: read-out: Brain/Blood concentration. Type of data set: ADME, tissue-based.
The nature of data set [7]: In vivo clearance after administration in rat. Type of data set: ADME, organism-based. The conditions noted are these: blood, read-out: CLb.
Data set [8] can be described thus: Oral bioavailability in rat. Type of data set: ADME, organism-based. The conditions noted are these: in vivo.
Data set [9] has as its target T3, 5-hydroxytryptamine receptor 1A (Homo sapiens). Kind of data set: Partial agonist efficacy in the 5-HT1A GTPgammaS functional assay; Expressed as fraction of 5-HT efficacy; Inactive.

Calls of active or inactive are those of the source. The calls are words filed in the database; no cut-off is given here.

T2 sequence (P28222 whole entry): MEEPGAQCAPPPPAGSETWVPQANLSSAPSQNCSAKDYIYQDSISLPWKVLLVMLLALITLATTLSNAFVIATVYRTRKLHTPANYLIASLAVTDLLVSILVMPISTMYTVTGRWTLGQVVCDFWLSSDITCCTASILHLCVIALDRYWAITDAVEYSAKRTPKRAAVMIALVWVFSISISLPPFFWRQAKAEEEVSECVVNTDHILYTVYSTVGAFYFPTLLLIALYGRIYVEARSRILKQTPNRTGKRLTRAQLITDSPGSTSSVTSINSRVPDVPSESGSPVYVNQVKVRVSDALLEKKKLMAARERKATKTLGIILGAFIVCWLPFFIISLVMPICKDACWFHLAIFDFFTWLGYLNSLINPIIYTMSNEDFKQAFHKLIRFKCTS

On to `Cc1cc(C(=O)N2CCc3cc4ccnc(N5CCN(C)CC5)c4cc32)c(C(F)(F)F)o1`, for which the Ki in data set [1] is 5.01 nM; in data set [2], 2 nM; in data set [3] it was 7.94 nM.

Turning to `CCc1c(C(=O)N2CCc3cc4ccnc(N5CCN(C(C)C)CC5)c4cc32)cnn1-c1ccc(C#N)cc1`, the Ki in data set [1] is 6.31 nM; in [2], 3.98 nM; in data set [3] it was 7.94 nM.

Turning to `CCc1c(C(=O)N2CCc3cc4ccnc(N5CCN6CCC[C@H]6C5)c4cc32)cnn1-c1ccc(C#N)cc1`, the Ki in [1] is 1.26 nM; in [2], 2 nM; in data set [3] it was 3.16 nM.

Take `CN1CCN(c2nccc3cc4c(cc23)N(C(=O)c2ccccc2Cl)CC4)CC1`: the Efficacy in [4] and in data set [5] was 0.42 in each case. Moreover, the Ki in data set [1] is 5.01 nM; in data set [2], 1.26 nM; in data set [3], 2.51 nM.

Turning to `CN1CCN(c2nccc3cc4c(cc23)N(C(=O)c2ccc(C(F)(F)F)nc2)CC4)CC1`, the Ki in data set [1] is 3.16 nM; in [2], 0.251 nM; in [3], 0.501 nM.

On to `CN1CCN(c2cc3c(cc2Cl)CCN3C(=O)Nc2ccc(-c3ccncc3)c3ccccc23)CC1`, for which the inhibition constant Ki is 10 nM in [1], 7.94 nM in [2] and 2 nM in [3].

For the molecule `CN1CCN(c2nccc3cc4c(cc23)N(C(=O)c2cnn(C)c2C(F)(F)F)CC4)CC1`, the Kp in data set [6] is 0.1. Further, the inhibition constant (Ki) in data set [1] was 6.31 nM; in data set [2] it was 5.01 nM; in data set [3] it was 10 nM. Further, the clearance in [7] was found to be 48 mL/min/kg.

As to `CCc1c(C(=O)N2CCc3cc4ccnc(N5CCNCC5)c4cc32)cnn1-c1ccc(C#N)cc1`, the Ki in data set [1] is 1.26 nM; in [2], 2.51 nM; in data set [3], 2.51 nM.

Turning to `CCc1c(C(=O)N2CCc3cc4ccnc(N5CCN(CC)CC5)c4cc32)cnn1-c1ccc(C#N)cc1`, the Ki in [1] was 3.16 nM; in [2], 1.58 nM; in [3], 2.51 nM.

Take `CN1CCN(c2nccc3cc4c(cc23)N(C(=O)c2ccc(Cl)cc2)CC4)CC1`: the Kp in data set [6] worked out at 1.3. Also, the Efficacy amounted to 0.69 in [4] and 0.75 in [5]. Also, the results for the Ki in [1], in [2] and in [3] were 0.794 nM, 0.316 nM and 0.501 nM, respectively. The clearance in data set [7] amounted to 29 mL/min/kg.

Turning to `CCc1c(C(=O)N2CCc3cc4ccnc(N5CCN(C)CC5)c4cc32)cnn1-c1ccc(C#N)cc1`, the bioavailability in data set [8] is 50%. Moreover, the Kp in data set [6] was found to be 0.5. The values for the Efficacy in [4] and in [5] were 0.33 and 0.47, respectively. For the same molecule, the Ki is 1.26 nM in [1], 1 nM in data set [2] and 0.631 nM in data set [3]. For the same molecule, the clearance in data set [7] is 28 mL/min/kg.

For `CN1CCN(c2nccc3cc4c(cc23)N(C(=O)c2ccccc2C(F)(F)F)CC4)CC1`, the Efficacy in data set [5] was found to be 0.23. In addition, the Efficacy result in data set [9] is “inactive”. Besides, the Ki in data set [1] was 10 nM; in [2], 15.8 nM; in data set [3] it was 15.8 nM.

As to `CN1CCN(c2nccc3cc4c(cc23)N(C(=O)c2cccc3ncccc23)CC4)CC1`, in data set [6], the Kp came out at 0.2. The results for the Ki in data set [1], in data set [2] and in [3] were 3.98 nM, 0.794 nM and 3.98 nM, respectively. The clearance in data set [7] worked out at 75 mL/min/kg.

For `CCc1c(C(=O)N2CCc3cc4ccnc(N5CCN6CCC[C@@H]6C5)c4cc32)cnn1-c1ccc(C#N)cc1`, the Ki in data set [1] is 1.58 nM; in data set [2] it was 1 nM; in data set [3], 1 nM.

The molecule `Cc1c(C(=O)N2CCc3cc4ccnc(N5CCN(C)CC5)c4cc32)cnn1-c1ccccc1` showed a bioavailability in data set [8] of 40%. The Kp in data set [6] worked out at 1.1. Moreover, the Efficacy in data set [4] is 0.54; in data set [5] it was 0.59. Besides, the Ki in [1], in [2] and in [3] was 0.631 nM in each case. Moreover, in [7], the clearance worked out at 32 mL/min/kg.

`Cc1nc(C)c(C(=O)N2CCc3cc4ccnc(N5CCN(C)CC5)c4cc32)o1` gave a bioavailability in data set [8] of 55%. The Kp in data set [6] stood at 0.5. Also, the Ki in data set [1] is 6.31 nM; in data set [2], 15.8 nM; in [3], 2.51 nM. Besides, the clearance in data set [7] came to 39 mL/min/kg.

As to `CCc1c(C(=O)N2CCc3cc4ccnc(N5C[C@@H](C)N[C@@H](C)C5)c4cc32)cnn1-c1ccc(C#N)cc1`, the results for the Ki in data set [1], in data set [2] and in data set [3] were 31.6 nM, 7.94 nM and 7.94 nM, respectively.

As for `CN1CCN(c2nccc3cc4c(cc23)N(C(=O)c2ccc(C#N)cc2)CC4)CC1`, in data set [6], the Kp was determined as 0.7. The Efficacy in data set [4] turned out to be 0.84; in data set [5], 0.86. Further, the Ki was 1 nM in data set [1], 0.501 nM in [2] and 0.794 nM in data set [3]. Also, in data set [7], the clearance came out at 19 mL/min/kg.

`CN1CCN(c2nccc3cc4c(cc23)N(C(=O)c2cnn3ccccc23)CC4)CC1`: the Ki was 0.316 nM in data set [1], 1 nM in [2] and 1.26 nM in [3].
